Data from US11884706B2, “Immunomodulating peptide derived from concave-eared torrent frog and use thereof” (priority 2019, dated 2024).

Tested on: mouse skin wounds
Assay: Skin wound healing in mice (8 mm biopsy punch wound on the back)
Assay type: in vivo, BALB/c mice
Conditions: 20 μL, 200 μg/mL dripped into wound once a day for 8 days; days 2, 4, 6, 8 after operation; vs PBS
Experimental: Experimental animals BALB/c mice, female, 6-8 weeks old, weighed 18-20 g, were purchased from Shanghai Slac Animal Co., Ltd. The mice were anesthetized by intraperitoneal injection of 2% sodium pentobarbital (0.1 mL/20 g), and the back was shaved with an electric razor and disinfected with iodophor. A hole was punched in the exposed back by a biopsy punch having a diameter of 8 mm. After the operation, the mice were kept in separate cages until the end of the experiment. The mice were randomly divided into 6 groups having 5 animals in each group, including a negative control group (20 μL PBS), a natural Ot-WHP group (20 μL, 200 μg/mL), a synthetic Ot-WHP group (20 μL, 200 μg/mL), a scrambled Ot-WHP group (SEQ ID NO:2, 20 μL, 200 μg/mL), an AH90 positive polypeptide control group (20 μL, 200 μg/mL), and an EGF growth factor control group (20 μL, 100 μg/mL). The drugs were dripped into corresponding wounds in mice once a day for 8 days.
FIGS. 3A1-A4 show the wound healing rate of mice in different experimental groups at 2, 4, 6, and 8 days after surgery. In the figures, Vehicle represents the negative control group; synthetic Ot-WHP represents the synthetic Ot-WHP group; Natural Ot-WHP represents the natural Ot-WHP group; and Scrambled Ot-WHP represents the scrambled Ot-WHP group.

scrambled Ot-WHP: scrambled Ot-WHP, SEQ ID NO:2, control peptide (PGPIPAHLGRRWAILIRPDLTRCG; Scrambled Ot-WHP Peptide) [reference compound]
healing of mouse skin wounds (wound healing rate): no activity to promote wound repair
